# Measurements as given in BindingDB's records for PubMed 37981443 (National Clinical Research Center for Geriatrics).
# Assays:
# [1] = target: 1-phosphatidylinositol 3-phosphate 5-kinase (Homo sapiens, UniProt Q9Y2I7); assay: Inhibition of N-terminal His-tagged human PIKfyve expressed in Sf9 insect cells incubated for 1 hr by enzyme assay
# [2] = target: Procathepsin L (Homo sapiens, UniProt P07711); assay: Inhibition of Cathepsin L (unknown origin)
# Procathepsin L, sequence (P07711 whole entry): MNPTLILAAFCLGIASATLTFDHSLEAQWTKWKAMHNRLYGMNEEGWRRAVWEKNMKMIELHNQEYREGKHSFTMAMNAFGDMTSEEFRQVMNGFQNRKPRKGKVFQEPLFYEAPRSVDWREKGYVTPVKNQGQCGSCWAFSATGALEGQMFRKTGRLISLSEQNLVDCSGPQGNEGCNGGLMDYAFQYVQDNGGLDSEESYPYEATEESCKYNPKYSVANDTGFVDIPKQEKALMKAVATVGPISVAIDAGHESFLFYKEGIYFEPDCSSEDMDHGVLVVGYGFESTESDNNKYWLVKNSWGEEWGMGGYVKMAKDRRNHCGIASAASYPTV
# 1-phosphatidylinositol 3-phosphate 5-kinase, sequence (Q9Y2I7 whole entry): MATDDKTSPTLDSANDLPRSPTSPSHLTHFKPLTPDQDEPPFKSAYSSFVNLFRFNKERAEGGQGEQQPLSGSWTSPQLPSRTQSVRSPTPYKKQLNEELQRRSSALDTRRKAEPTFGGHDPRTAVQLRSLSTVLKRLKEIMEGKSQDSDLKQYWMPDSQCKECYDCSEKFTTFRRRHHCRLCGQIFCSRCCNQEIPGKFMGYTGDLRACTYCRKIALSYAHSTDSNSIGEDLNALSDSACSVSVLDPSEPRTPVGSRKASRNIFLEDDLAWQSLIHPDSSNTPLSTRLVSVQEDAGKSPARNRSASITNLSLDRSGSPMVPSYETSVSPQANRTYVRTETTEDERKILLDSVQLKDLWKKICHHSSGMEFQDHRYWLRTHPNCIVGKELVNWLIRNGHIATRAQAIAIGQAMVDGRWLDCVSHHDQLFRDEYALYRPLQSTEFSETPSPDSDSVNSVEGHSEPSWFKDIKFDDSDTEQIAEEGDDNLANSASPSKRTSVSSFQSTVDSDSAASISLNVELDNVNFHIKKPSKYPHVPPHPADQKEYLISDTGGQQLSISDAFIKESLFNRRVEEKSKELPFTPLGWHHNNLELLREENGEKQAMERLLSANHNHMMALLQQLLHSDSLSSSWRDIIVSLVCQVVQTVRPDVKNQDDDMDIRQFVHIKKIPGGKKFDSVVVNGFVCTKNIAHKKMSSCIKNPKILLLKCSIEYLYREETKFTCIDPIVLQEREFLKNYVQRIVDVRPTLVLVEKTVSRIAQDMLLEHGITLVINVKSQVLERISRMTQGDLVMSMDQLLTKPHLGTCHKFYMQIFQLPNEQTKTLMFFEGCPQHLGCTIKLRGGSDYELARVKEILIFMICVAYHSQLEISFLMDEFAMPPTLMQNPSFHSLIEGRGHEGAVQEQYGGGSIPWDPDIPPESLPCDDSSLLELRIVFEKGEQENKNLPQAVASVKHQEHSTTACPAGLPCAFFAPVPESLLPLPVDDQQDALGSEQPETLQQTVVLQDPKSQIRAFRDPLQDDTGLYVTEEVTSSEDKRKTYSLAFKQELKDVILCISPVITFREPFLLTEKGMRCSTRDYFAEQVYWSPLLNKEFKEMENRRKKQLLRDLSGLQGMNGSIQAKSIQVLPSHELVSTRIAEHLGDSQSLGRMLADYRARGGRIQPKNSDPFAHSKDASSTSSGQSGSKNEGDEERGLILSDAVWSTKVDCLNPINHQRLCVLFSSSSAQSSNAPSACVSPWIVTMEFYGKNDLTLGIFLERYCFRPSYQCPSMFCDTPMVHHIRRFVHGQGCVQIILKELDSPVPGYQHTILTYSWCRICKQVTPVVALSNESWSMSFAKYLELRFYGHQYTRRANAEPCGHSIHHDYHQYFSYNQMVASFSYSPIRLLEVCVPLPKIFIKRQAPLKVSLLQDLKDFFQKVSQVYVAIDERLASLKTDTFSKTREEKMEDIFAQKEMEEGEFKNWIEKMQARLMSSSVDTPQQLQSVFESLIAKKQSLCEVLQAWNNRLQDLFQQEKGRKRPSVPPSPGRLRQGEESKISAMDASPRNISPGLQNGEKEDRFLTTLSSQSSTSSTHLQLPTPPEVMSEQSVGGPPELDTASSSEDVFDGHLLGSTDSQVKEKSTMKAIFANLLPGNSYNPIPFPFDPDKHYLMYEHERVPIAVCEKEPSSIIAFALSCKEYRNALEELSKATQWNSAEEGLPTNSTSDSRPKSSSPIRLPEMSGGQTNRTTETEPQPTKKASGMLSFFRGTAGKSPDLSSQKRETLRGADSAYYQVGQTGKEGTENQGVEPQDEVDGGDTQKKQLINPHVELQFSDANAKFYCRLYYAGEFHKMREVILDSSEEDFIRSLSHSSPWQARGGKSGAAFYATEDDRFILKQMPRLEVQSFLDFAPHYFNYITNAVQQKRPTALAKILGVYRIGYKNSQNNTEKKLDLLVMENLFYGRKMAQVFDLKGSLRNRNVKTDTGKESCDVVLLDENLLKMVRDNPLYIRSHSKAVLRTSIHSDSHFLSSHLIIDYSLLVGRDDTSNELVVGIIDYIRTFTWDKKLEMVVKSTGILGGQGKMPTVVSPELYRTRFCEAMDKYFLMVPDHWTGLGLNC
SMILES,IC50 [1] [nM],IC50 [2] [nM]
COc1ccc2[nH]c(C)c(/C=C/C(=O)c3ccncc3)c2c1,5.1,
CCCC[C@@H](C=O)NC(=O)[C@H](CC(C)C)NC(=O)OCc1ccccc1 [[(S)-1-((S)-1-Formyl-pentylcarbamoyl)-3-methyl-butyl]-carbamic acid benzyl ester],,44
